Measurements as given in US20250171434A1, “SEC61 INHIBITORS AND USE THEREOF” (KEZAR LIFE SCIENCES, INC., priority 2022, published 2025).

Key:
[1] = test system: IL6R-ss+10aa/Gaussia Luciferase; test: Dox-induced IL-6R-ss-Gluc Assay; type: cell-based; conditions: Table 1; for IC50: Flp-In 293 T-REx cells, 24 hours with doxycycline, read-out: 24hr Dox Inducible IL6R(ss + 10)Gluc 293FRT/TO: Mean IC50; for 24hr Dox Inducible IL6R(ss + 10)Gluc 293FRT/TO: IL6R/PD1: ratio of IC50s IL6R/PD1
Summary of the method: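 Flp-In 293 T-REx cells stably carrying a doxycycline-inducible IL6R signal sequence+10 aa fused to Gaussia luciferase. Cells plated the day before; compound dilutions added in DMSO/media containing doxycycline and incubated at 37 °C, 5% CO2.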

[2] = Liver Microsome Stability Assay, rat; type: in vitro ADME; conditions: rat liver microsomes 1.0 mg/mL, 1.0 uM compound, 37° C., 1 mM NADPH
Summary of the method: (§1)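 Stability was judged from samples quenched at 0 and 30 minutes after incubating 1.0 uM compound with 1.0 mg/mL liver microsomes at 37° C, plus or minus 1 mM NADPH, in 0.1 M potassium phosphate containing 0.4% DMSO.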

[3] = test system: multiple myeloma cell line NCI-H929; test: H929 Cell Viability Assay; type: cell-based, human; conditions: Homo sapiens; NCI-H929 cells, 48 hours, Celltiter-Glo; read-out: 48 hr H929 Viability Celltiter-Glo: Mean EC50
Summary of the method: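 A 48-hour compound treatment of cells in 10% FBS RPMI medium was followed by luciferase-based viability quantification.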

[4] = Liver Microsome Stability Assay, monkey; type: in vitro ADME; conditions: monkey liver microsomes 1.0 mg/mL, 1.0 uM compound, 37° C., 1 mM NADPH
Summary of the method: as §1

[5] = test system: multiple myeloma cell line U266B1; test: U266 Cell Viability Assay; type: cell-based; conditions: Homo sapiens, U-266; U266B1 cells, 48 hours, Celltiter-Glo; read-out: 48 hr U266 Viability Celltiter-Glo: Mean EC50
Summary of the method: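 After growth in serum-supplemented RPMI 1640, cells received serially diluted compound in DMSO/media and were kept 48 hours before a CellTiter-Glo luminescence readout.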

[6] = test system: PD1-ss+10aa/Gaussia Luciferase; test: Dox-Induced PD1-ss-Gluc Assay; type: cell-based; conditions: Flp-In 293 T-REx cells, 24 hours with doxycycline; Table 1; read-out: 24 hr Dox Inducible PD1ssGluc 293FRT/TO: Mean IC50
Summary of the method: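 The cell line was made by transfecting Flp-In 293 T-REx cells with a PD1 signal sequence+10aa–Gaussia luciferase fusion under T-REx control and selecting with hygromycin and blasticidin. Cells were seeded, and next day compound plus doxycycline was added at 37 °C, 5% CO2.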

[7] = Liver Microsome Stability Assay, human; type: in vitro ADME; conditions: human liver microsomes 1.0 mg/mL, 1.0 uM compound, 37° C., 1 mM NADPH
Summary of the method: as §1

CD47(ss + 10)Gluc = test: Dox-Induced CD47-ss-Gluc Assay; type: cell-based; conditions: Flp-In 293 T-REx cells, 24 hours with doxycycline; Table 1; read-out: 24 hr Dox Inducible CD47(ss + 10)Gluc 293FRT/TO: Mean IC50
[8] = test system: IL-2-FL/Gaussia Luciferase; test: Dox Inducible IL2-FL-Gluc Assay; type: cell-based; conditions: Table 1; for IC50: read-out: 24 hr Dox Inducible IL2FLGluc 293FRT/TO: Mean IC50; for 24 hr Dox Inducible IL2FLGluc 293FRT/TO: IL2/PD1: ratio of IC50s IL2/PD1
Summary of the method: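 A hygromycin- and blasticidin-resistant 293 T-REx clone carrying inducible IL-2–Gaussia luciferase (full-length IL-2, residues 1-153) serves as the cell system. After overnight plating, the cells get test compounds together with doxycycline in DMSO/media and are incubated at 37° C, 5% CO2.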

[9] = Liver Microsome Stability Assay, mouse; type: in vitro ADME; conditions: mouse liver microsomes 1.0 mg/mL, 1.0 uM compound, 37° C., 1 mM NADPH
Summary of the method: as §1

[10] = Flp-In 293 T-REx cells, 24 hours with doxycycline

| Structure (SMILES) | IC50 [1] | 24hr Dox Inducible IL6R(ss + 10)Gluc 293FRT/TO: IL6R/PD1 [1] | Liver Microsome Stability (Multiple Species): Rat - % Remaining after 30 min w/ NADPH (%) [2] | EC50 [3] | Liver Microsome Stability (Multiple Species): Monkey - % Remaining after 30 min w/ NADPH (%) [4] | EC50 [5] | IC50 [6] | Liver Microsome Stability (Multiple Species): Human - % Remaining after 30 min w/ NADPH (%) [7] | IC50 (CD47(ss + 10)Gluc) | IC50 [8, 10] | 24 hr Dox Inducible IL2FLGluc 293FRT/TO: IL2/PD1 [8] | Liver Microsome Stability (Multiple Species): Mouse - % Remaining after 30 min w/ NADPH (%) [9] | 24 hr Dox Inducible IL2FLGluc 293FRT/TO: Mean IC50 (nM) [8, 10] |
| --- | --- | --- | --- | --- | --- | --- | --- | --- | --- | --- | --- | --- | --- |
| O=C(Nc1nc(/C=C/c2ncn(C3CC3)c2Cl)cs1)c1cc(SC(F)(F)F)cn1Cc1ccnc(F)c1 [Compound A31, (E)-N-(4-(2-(5-chloro-1-cyclopropyl-1H-imidazol-4-yl)vinyl)thiazol-2-yl)-1-((2-fluoropyridin-4-yl)methyl)-4-((trifluoromethyl)thio)-1H-pyrrole-2-carboxamide] | 1.26 µM | 317 | 65% | 22.7 µM | 25% | > 25 µM | 0.004 µM | 10% | 2.21 µM | > 25 µM | >6300 | 82% |  |
| O=C(Nc1nc(/C=C/c2ncn(C3CC3)c2Cl)cs1)c1cc(SC(F)F)cn1Cc1ccnc(F)c1 [Compound A32, (E)-N-(4-(2-(5-chloro-1-cyclopropyl-1H-imidazol-4-yl)vinyl)thiazol-2-yl)-4-((difluoromethyl)thio)-1-((2-fluoropyridin-4-yl)methyl)-1H-pyrrole-2-carboxamide] | 1.94 µM | 187 | 5% | > 25 µM | 2% | > 25 µM | 0.01 µM | 1% | 3.06 µM |  | >2400 | 27% | I.A |
| CN[C@H]1CC[C@@H](/C=C/c2csc(NC(=O)c3cccn3Cc3ccncc3)n2)CC1 [Compound B11, N-(4-((E)-2-((1s,4s)-4-(methylamino)cyclohexyl)vinyl)thiazol-2-yl)-1-(pyridin-4-ylmethyl)-1H-pyrrole-2-carboxamide] | > 25 µM | >1.3 | 32% | 24.7 µM | 3% | > 25 µM | 18.7 µM | 1% | > 25 µM | 14.1 µM | 0.8 | 54% |  |
| CN[C@H]1CC[C@H](/C=C/c2csc(NC(=O)c3cccn3Cc3ccncc3)n2)CC1 [Compound B12, N-(4-((E)-2-((1r,4r)-4-(methylamino)cyclohexyl)vinyl)thiazol-2-yl)-1-(pyridin-4-ylmethyl)-1H-pyrrole-2-carboxamide] | > 25 µM | >1.5 | 12% | > 25 µM | <1% | > 25 µM | 17.1 µM | <1% | 15.6 µM | 7.13 µM | 0.4 | 57% |  |
| N#Cc1ccc(/C=C/c2csc(NC(=O)c3cccn3Cc3ccnc(F)c3)n2)nc1 [Compound B13, (E)-N-(4-(2-(5-cyanopyridin-2-yl)vinyl)thiazol-2-yl)-1-((2-fluoropyridin-4-yl)methyl)-1H-pyrrole-2-carboxamide] | > 25 µM | >500 | <1% | > 25 µM | <1% | > 25 µM | 0.05 µM | <1% | > 25 µM | > 25 µM | >500 | 4% |  |
| Cc1nc(/C=C/c2csc(NC(=O)c3cccn3Cc3ccnc(F)c3)n2)ccc1C#N [Compound B14, (E)-N-(4-(2-(5-cyano-6-methylpyridin-2-yl)vinyl)thiazol-2-yl)-1-((2-fluoropyridin-4-yl)methyl)-1H-pyrrole-2-carboxamide] | > 25 µM | >23 | <1% | > 25 µM | <1% | > 25 µM | 1.1 µM | <1% | > 25 µM | > 25 µM | >23 | 0.2% |  |
| CC(=O)N[C@H]1CC[C@@H](/C=C/c2csc(NC(=O)c3cccn3Cc3ccncc3)n2)CC1 [Compound B15, N-(4-((E)-2-((1s,4s)-4-acetamidocyclohexyl)vinyl)thiazol-2-yl)-1-(pyridin-4-ylmethyl)-1H-pyrrole-2-carboxamide] | > 25 µM | >2 | 1% | > 25 µM | <1% | > 25 µM | 11.9 µM | <1% | > 25 µM | > 25 µM | >2.1 | 2% |  |
| N[C@H]1CC[C@@H](/C=C/c2csc(NC(=O)c3cccn3Cc3ccncc3)n2)CC1 [Compound B16, N-(4-((E)-2-((1s,4s)-4-aminocyclohexyl)vinyl)thiazol-2-yl)-1-(pyridin-4-ylmethyl)-1H-pyrrole-2-carboxamide] | 8.77 µM | 1 | 47% | 19.3 µM | 2% | 21.3 µM | 8.11 µM | 1% | 7.07 µM | 19.5 µM | 2.4 | 79% |  |
| CC(=O)N[C@H]1CC[C@H](/C=C/c2csc(NC(=O)c3cccn3Cc3ccncc3)n2)CC1 [Compound B17] | 23.8 µM | 5 | 17% | 5.11 µM | <1% | 8.61 µM | 5.1 µM | <1% | > 25 µM | 8.24 µM | 1.6 | 4% |  |
